Measurements published in ChEMBL document CHEMBL3137667, “[Drug-induced liver injury; fourteenth updated edition of the bibliographic database of liver injuries and related drugs]” (Gastroenterol Clin Biol, 2004).

Key:
[1] = human, serum, 4383 h
[2] = human
[3] = human; remark: listed apart in the source
[4] = human, serum
[5] = human; remark: listed apart in the source
[6] = human; remark: listed apart in the source
[7] = Highest frequency of moderate liver toxicity observed during clinical trials, expressed as a percentage. [column '% BIOL' in source]; settings: human
[8] = human; remark: listed apart in the source
[9] = human; remark: listed apart in the source
[10] = human; remark: listed apart in the source
[11] = human; remark: listed apart in the source
[12] = human; remark: listed apart in the source
[13] = Highest frequency of acute liver toxicity observed during clinical trials, expressed as a percentage. [column '% AIGUE' in source]; settings: human
[14] = Presence of at least one case with successful reintroduction. [column 'REINT' in source]; settings: human
[15] = human, serum; remark: listed apart in the source
[16] = Times to onset, minimal and maximal, observed in the indexed observations. [column 'DELAI' in source]; settings: human
[17] = Comments (NB not yet translated). [column 'COMMENTAIRES' in source]; settings: human
[18] = Proposed mechanism(s) of liver damage. [column 'MEC' in source]; settings: human
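Throughout, for Hepatotoxicity (association with vascular disease): count of indexed literature references reporting vascular liver injury in humans, e.g. peliosis hepatitis, hepatic veno-occlusive disease or Budd-Chiari syndrome.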
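Throughout, for Hepatotoxicity (benign tumour): value is a count of indexed literature references citing a benign tumour confirmed by histopathology.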
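Throughout, for Hepatotoxicity (choleostasis): human cholestatic liver injury, shown by histopathology or by peak ALT or AST elevation over alkaline phosphatase ratio below 2, value counts indexed literature reports.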
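Throughout, for Hepatotoxicity (chronic liver disease): chronic liver injury confirmed by histopathology or persistently raised serum aminotransferase activity beyond 6 months, value given as the count of indexed literature references.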
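Throughout, for Hepatotoxicity (cirrhosis): value is a count of indexed literature references reporting cirrhosis confirmed by histopathology.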
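Throughout, for Hepatotoxicity (cytolytic): human cytolytic liver injury, shown by histopathology or by a ratio above 5 of peak ALT or AST elevation to alkaline phosphatase elevation, value counts indexed references.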
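Throughout, for Hepatotoxicity (granulomatous hepatitis): value is a count of indexed literature references reporting granulomatous liver disease confirmed by histopathology.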
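Throughout, for Hepatotoxicity (malignant tumour): malignant tumour confirmed by histopathology, value gives the count of indexed literature references reporting it.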
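Throughout, for Hepatotoxicity (severe hepatitis): human clinical data: severe hepatitis, meaning potentially life-threatening liver failure or clinically observed cases, the value counts how many indexed literature references report it.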
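Throughout, for Hepatotoxicity (steatosis): steatosis confirmed by histopathology, value is the count of indexed references.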

Row | Molecule | Hepatotoxicity (chronic liver disease) [1] | Hepatotoxicity (choleostasis) [2] | Hepatotoxicity (association with vascular disease) [3] | Hepatotoxicity (acute) [4] | Hepatotoxicity (cytolytic) [5] | Hepatotoxicity (steatosis) [6] | Hepatotoxicity (moderate) [7] [%] | Hepatotoxicity (cirrhosis) [8] | Hepatotoxicity (malignant tumour) [9] | Hepatotoxicity (severe hepatitis) [10] | Hepatotoxicity (benign tumour) [11] | Hepatotoxicity (granulomatous hepatitis) [12] | Hepatotoxicity (acute) [13] [%] | Hepatotoxicity (successful reintroduction) [14] | Hepatotoxicity (moderate) [15] | Hepatotoxicity (time to onset) [16] | Hepatotoxicity (comment) [17] | Hepatotoxicity (mechanism) [18] | also measured
1 | O=C1CN2Cc3c(ccc(Cl)c3Cl)N=C2N1 [ANAGRELIDE] | 0 | 1 | 0 | 1 | 0 | 0 | 0.2 | 0 | 0 | 0 | 0 | 0 | 0 | yes | 1 |  |  |  | 
2 | CNC1=Nc2ccc(Cl)cc2C(c2ccccc2)=[N+]([O-])C1 [CHLORDIAZEPOXIDE] | 0 | 3 | 0 |  | 1 | 0 | 11 | 0 | 0 | 0 | 0 | 0 | 0 | yes | 3 | 2 days - 3 years |  |  | 
3 | CN1CCN(C(c2ccccc2)c2ccccc2)CC1 [CYCLIZINE] | 0 | 0 | 0 | 1 | 0 | 0 | 0 | 0 | 0 | 0 | 0 | 0 | 0 | yes | 0 |  |  |  | 
4 | CC(C(=O)Nc1cc(-c2ccccc2)nn1-c1ccccc1)N(C)C (centres undefined) [DIFENAMIZOLE] | 0 | 0 | 0 | 1 | 1 | 0 | 0 | 0 | 0 | 1 | 0 | 0 | 0 | yes | 0 |  |  |  | 
5 | CCc1c2c(nc3ccc(OC(=O)N4CCC(N5CCCCC5)CC4)cc13)-c1cc3c(c(=O)n1C2)COC(=O)[C@]3(O)CC [IRINOTECAN] | 0 | 2 | 0 | 3 | 1 | 0 |  | 0 | 0 |  | 0 | 0 |  | yes | 12 |  |  |  | Hepatotoxicity (moderate) ([7]; Liver): 13.3%; Hepatotoxicity (severe hepatitis) ([10]; Liver): 0; Hepatotoxicity (acute) ([13]; Liver): 4.2%
6 | O=[N+]([O-])O[C@H]1CO[C@H]2[C@@H]1OC[C@H]2O[N+](=O)[O-] [ISOSORBIDE DINITRATE] | 0 | 0 | 0 | 1 | 0 | 0 | 0 | 0 | 0 | 0 | 0 | 0 | 0 | yes | 1 |  |  |  | 
7 | Cc1cccc(C)c1NC(=O)C(C)N (centres undefined) [TOCAINIDE] | 0 | 4 | 0 | 6 | 5 | 1 | 1.7 | 0 | 0 | 0 | 0 | 1 | 0 |  | 2 | 1 month - 2 months | AC_ANTI-N/-ML | Allergic | 
8 | CC1=C(/C=C/C(C)=C/C=C/C(C)=C/C(=O)O)C(C)(C)CCC1 [TRETINOIN] | 0 | 4 | 0 | 10 | 3 | 0 | 85 | 0 | 0 | 2 | 0 | 0 | 16.7 |  | 26 | 10 days - 38 days | CHOLANGITE | Dose-dependant | 
9 | CC(CN(C)C)CN1c2ccccc2CCc2ccccc21 (centres undefined) [TRIMIPRAMINE] | 0 | 0 | 0 | 2 | 1 | 0 | 0 | 0 | 0 | 0 | 0 | 0 | 0 |  | 2 | 2 weeks - 3 weeks | RC/DESIPRAMINE/CYAMEMAZINE | Dose-dependant | 
10 | COc1cc(C(=S)N2CCOCC2)cc(OC)c1OC [TRITIOZINE] | 0 | 0 | 0 | 2 | 0 | 0 | 3 | 0 | 0 | 0 | 0 | 0 | 0 | yes | 1 |  |  |  | 
11 | Cc1c(C)c2c(c(C)c1O)CCC(C)(COc1ccc(CC3SC(=O)NC3=O)cc1)O2 (centres undefined) [TROGLITAZONE] | 1 | 4 | 0 | 36 | 27 | 2 | 5.8 | 0 | 0 | 21 | 0 | 1 | 5 |  | 18 | 3 days - 2.3 years | CHOLESTASE_PROLONGEE | Mitochondrial toxicity | 
12 | GEMTUZUMAB OZOGAMICIN | 0 | 2 | 19 | 11 | 10 | 0 | 47.8 | 0 | 0 | 1 | 0 | 0 | 38.3 |  | 7 | 2 days - 6 months | MVO | Dose-dependant | 
13 | GOLD | 1 | 44 | 0 | 52 | 7 | 0 | 40 | 0 | 0 | 5 | 0 | 1 | 0.8 |  | 22 | 1 week - 5 years | AC_ANTI-ADN/-ML/-N HLA-DR3 PERICHOLANGITE | Allergic, Dose-dependant | 
14 | INTERFERON ALFA | 0 | 1 | 0 | 2 | 2 | 3 | 58 | 1 | 0 | 1 | 0 | 0 | 0 |  | 21 | 8 days - 8 months | AGGRAVATION_HEPATITE_AUTOIMMUNE/B/DELTA AC_ANTI-ML/LKM/CH | Dose-dependant | 
